Experimental data from patent US12139443B2, “Concentrated liquid compositions of urease inhibitors for nitrogen sources” (priority 2017, dated 2024).
Several values for one entry are separate records, joined by “and”; a condition that tells them apart may be missing. Identical values can stand only once. Like-named read-outs stand apart in the source and are kept apart here.

Assays:
[1] = Time to dissolution of nitrification inhibitor coated with urease formulation; assay type: physicochemical; settings: UAN 30
Description: • 1. In a 4 oz. glass jar add 97 grams of either Deionized (DI) Water or UAN 30. • 2. Add a ¾ inch magnetic stir bar and place on a Corning/Model PC-420 Heater/Stirrer and set stirring speed at #7. • 3. Charge 3 grams of a nitrification inhibitor coated or uncoated and start stop watch. • 4. Visually determine the point at which all particles of the nitrification inhibitor have dissolved and record this time as time to dissolution.

[2] = Thermal Stability of NBPT (oven exposure, weight loss and HPLC); assay type: physicochemical; settings: for % NBPT present by LC/UV % w/w: single determination
Method: One of the advantages of this invention is the application, at moderate temperatures, of thermally sensitive urease inhibitor onto the surfaces of urea. Moderate temperatures are defined as a range of about 20-70° C. Testing procedures were established to exactly weigh samples of approximately 1 gram of NBPT in an aluminum pan and expose them to different temperatures in an oven over varying amounts of time. The initial weight of NBPT in the pan was compared to the final weight of sample in the pan. The % NBPT was then determined by HPLC of the residual from the final weight pan by the following procedure:
1. Crush a portion of sample (˜5 g) using mortar and pestle.
2. Weigh about a 100 mg sample, in duplicate, and add to separate 10 mL volumetric flasks.
3. Bring to volume of 10 ml volumetric flask with 50:50 ACN(Acetonitrile):H2O.
5. Transfer a portion through a Nylon 0.45 μm syringe filter into an HPLC vial.
6. Inject on LC/UV (15-μg/mL calibration standard).

[3] = test system: nitrification of urea fertilizer; experiment: University of Arkansas soil incubation trial, urea coated with N Bound; settings: Urea without inhibitor
Method: To determine what minimum effective levels of DCD are required to meet acceptable levels of nitrification inhibition and to maximize performance versus inhibitor level, studies were performed at Auburn University, South Dakota State University and University of Arkansas. These studies were performed by coating urea with a liquid nitrification inhibitor product, trade name N Bound, which contained approximately 28% DCD. The application rates of N Bound on urea (Units are in quarts of N Bound/ton of urea) was varied to measure application level versus the conversion of urea to nitrate measured as mg NO3 extracted from the applied soil.
A trial conducted at University of Arkansas was designed to measure and compare the nitrate concentrations from the microbial activity on untreated urea and ureas coated with N Bound that had been applied to classified as a Calhoun silt loam (pH=7.4) at varying rates. The objective was to determine the minimum inhibitor application rate to achieve optimize nitrification inhibition.

[4] = test system: urease enzyme
Method: The treated urea was prepared as follows:
• 1. Charging weight of urea as directed by Table 8 to a container. • 2. The urea was slowly agitated with overhead stirrer with U shaped agitator blade. • 3. The example was slowly dripped on the urea while mixing in the amount as directed by Table 8 (rate=3 quarts/ton of urea). • 4. […] The coated urea was placed in a jar and sealed.
• 1. In a 6″×9″ rectangular Tupperware sealable container with holes drilled on each end and sealed with tape charge 400 grams of West Texas Sandy Loam Soil and 100 grams of distilled water, mix thoroughly to a consistency of thick “mud” (% moisture should be between 30-40%). • 2. Calculate the surface area to be treated. • a. 6″×9.5″=sq in/1 44 sq in/sq ft=0.395 sq ft • b. 0.395 sq ft/43,560 sq ft/acre=0.0000091 acres • 3. Calculate amount of urea and treated urea to charge to the containers of soil • a. Application Rate: 400 pounds urea per acre • b. 400 lbs/acre/43560 sq ft/acre=0.009 lbs/sq ft×0.395 sq ft/container=0.0036 lbs/container×454 g/lb=1.65 grams urea per container. • c. Add 1.65 grams of urea and various treated ureas to each container • 4. Ammonia Volatilization Screening Test • a. Evenly distribute over the soil in each container 1.65 grams of example to be tested, • b. Seal container, • c. Take readings of ammonia volatilization of each container over a selected period of time as directed in Table 9, • i. Drager tube measurement • (1) Use Drager pump with 0-600 ppm (or range TBD) ammonia drager tube. • (2) At specified times, quickly remove the tape on one end of container and insert the drager tube/pump. • (3) Fully squeeze pump 20 times allowing enough time for pump to fully inflate between each squeeze and then remove the tube from the container and read. • (4) Open container lid and vent the remaining ammonia gas out of the container and reseal. • (5) Repeat procedure at next designated time.

[5] = Crush strength of coated urea granules; assay type: physicochemical; settings: New Leader tester scale 1-10 (1 very poor), average of 10 runs
Description: Crush strength is the minimum pressure required to crush a granule of urea. Crush strength is of concern during the application of urea and is a measure of the urea's expected broadcast distance. Crush strength is related to the maximum rotations per minute (rpm) for the spinner portion of the urea spreader. The higher the rpms of the spinner, the more distance the urea can be broadcasted. High rpms require high crush strength urea granules in order for the granules not to be pulverized to dust by the broadcast process.
In order for the coated granules of urea to be tested, they were first sifted through a series of screens to ensure that the urea granules to be tested were of similar particle size as the urea particle size has an impact on crush resistance. A mesh size of 320-400 was chosen as the urea particle size. A New Leader crushing strength tester was used utilizing a scale from 1-10 wherein a reading of 1 is rated very poor crush strength. The results in Table 14 are for coated urea stored at 25° C. and at 50° C. Also included in Table 14 is the weight percentage of DMSO of the composition of the coated urea.
However, it should be understood that a different method of applying example 86 to the surfaces of the urea granules might result in better coverage (e.g., atomization onto the granules). […]

## N#CN=C(N)N [DCD untreated, Dicyandiamide]
[1]; 3%
  Initial Appearance: clear
[1]; 3 grams in 97 grams (3%)
  Time to Dissolution: 1740 s

## CCCCNP(N)(N)=S [NBPT, N-(n-butyl)thiophosphoric triamide]
[2]; 50° C./3600 sec
  % NBPT present by LC/UV Average: 99.38%
  % Weight Loss Average: 0.0%
  % NBPT present by LC/UV % w/w: 99.17% and 99.58%
[2]; 70° C./900 sec
  % NBPT present by LC/UV Average: 99.38%
  % Weight Loss Average: 0.26%
  % NBPT present by LC/UV % w/w: 99.53% and 99.23%
[2]; 100° C./300 sec
  % NBPT present by LC/UV Average: 22.92%
  % Weight Loss Average: 10.36%
  % NBPT present by LC/UV % w/w: 23.59% and 22.25%
[2]; 120° C./180 sec
  % NBPT present by LC/UV Average: 4.67%
  % Weight Loss Average: 13.55%
  % NBPT present by LC/UV % w/w: 4.79% and 4.54%
[2]; 140° C./90 sec
  % NBPT present by LC/UV Average: 3.84%
  % Weight Loss Average: 13.42%
  % NBPT present by LC/UV % w/w: 3.68% and 3.99%
[2]; 15 minutes at 70° C.
  degradation (HPLC): no degradation
[2]; NBPT std, not heated
  % NBPT present by LC/UV Average: 99.25%
  % NBPT present by LC/UV % w/w: 99.35% and 99.16%
[2]; temperatures >100° C.
  thermal stability (HPLC): poor thermal stability

## NC(N)=O [Urea]
[3]; Day 1, Calhoun silt loam
  Nitrate-N Concentration: 113.4 mg NO3—N/kg soil
[3]; Day 3
  Nitrate-N Concentration: 98.6 mg NO3—N/kg soil
[3]; Day 7
  Nitrate-N Concentration: 151.6 mg NO3—N/kg soil
[3]; Day 14
  Nitrate-N Concentration: 202.8 mg NO3—N/kg soil
[3]; Day 21
  Nitrate-N Concentration: 221.2 mg NO3—N/kg soil
[3]; Day 28
  Nitrate-N Concentration: 262.3 mg NO3—N/kg soil
[3]; Day 35
  Nitrate-N Concentration: 255.3 mg NO3—N/kg soil
[4]; 72 hours, 1.65 grams treated urea (3 quarts/ton) on West Texas Sandy Loam Soil
  Ammonia Reading: 220 ppm
[4]; 144 hours
  Ammonia Reading: 475 ppm
[4]; 264 hours
  Ammonia Reading: 460 ppm
[5]
  Crush Strength stored 24 hrs. @ 25 C.: 5.4
  Crush Strength stored 24 hrs. @ 50 C.: 6.75
